Measurements from PMC8399180, “Bioactive Polyketide and Diketopiperazine Derivatives from the Mangrove-Sediment-Derived Fungus Aspergillus sp. SCSIO41407” (Molecules, 2021).
≈ marks a conversion by molar mass, not a printed value.

How the values were obtained:
[1] = test system: RANKL-induced osteoclast differentiation in bone marrow macrophages cells (BMMCs); assay: RANKL-induced osteoclast differentiation in BMMCs (TRAP staining); type: cell-based; conditions: 5 μM, 3 days, TRAP-positive multinucleated cells
Procedure: Then, the cells were fixed and stained for TRAP activity and the images were photographed using an inverted microscope (Nikon, Tokyo, Japan). Data are expressed as the mean ± SD and analyzed using GraphPad Prism 7.0 software (GraphPad, San Diego, CA, USA). Statistical differences among groups were performed using one-way analysis of variance with a Bonferroni post-hoc test. A p-value of < 0.05 was considered statistically significant.

[2] = test system: LPS-induced NF-κB activation in RAW264.7 cells; assay: Inhibition of LPS-induced NF-κB activation in RAW264.7 cells (luciferase reporter gene assay); type: cell-based; conditions: for IC50: Mus musculus, luciferase reporter; for Inhibitory activity against LPS-induced NF-κB activation: compounds at 10 μM, 5 μg/mL LPS for 8 h
Procedure: The inhibitory activities of LPS-induced NF-κB activation in RAW264.7 cells was evaluated as detected by luciferase reporter gene assay as described previously. In brief, the RAW264.7 cells stably transfected with a luciferase reporter gene were plated in 96-well plates and then pretreated with testd compounds (10 μM) and BAY11-7082 (NF-κB inhibitor as positive control, 5 μM, Sigma-Aldrich) for 30 min, followed by 5 μg/mL LPS stimulation for 8 h. Cells were harvested, and luciferase activities of the triplicate tests were measured using the luciferase assay system (Promega, Madison, WI, USA).

[3] = target: acetylcholinesterase (AChE) (Homo sapiens, UniProt P22303); assay: AChE inhibitory activity (modified Ellman method); type: biochemical; conditions: 0.1 U/mL AChE, pH 8.0, 30 °C; read-out: AChE inhibition IC50
Procedure: AChE inhibitory activity was evaluated in vitro according to the modified Ellman method. Briefly, 0.1 U/mL AChE solution was prepared by dissolving in phosphate buffer (pH 8.0). The test sample and enzyme buffer were mixed in 96-well plates and incubated for 20 min at 30 °C. Then, 5,5′-dithiobis (2-nitrobenzoic acid) and acetylthiocholine iodide were added, and the enzyme reaction was allowed to proceed for 30 min at 30 °C. AChE activity was determined by measuring the degradation of acetylthiocholine iodide to thiocholine and acetic acid at 405 nm using a microplate reader.

[4] = test system: methicillin-resistant Staphylococcus aureus (MRSA); assay: Antibacterial activity against MRSA (broth microdilution); type: cell-based
Procedure: The cytotoxicity of 1–8 and 10–15 against the A549 cell line was preliminarily evaluated via the MTT method as reported in our previous study, and the antibacterial activities of 1–15 against six bacterial strains, Acinetobacter baumannii (ATCC 19606), Staphylococcus aureus (ATCC 29213), Enterococcus faecalis (ATCC 29212), Klebsiella pneumoniae (ATCC 13883), MRSA, and Escherichia coli (ATCC 25922), were evaluated using a modification of the broth microdilution method.

[5] = Cytotoxicity against A549 cell line (MTT method); type: cell-based; conditions: human, A549 cells, read-out: Cytotoxic Activities A549 (IC50)

acetylcholinesterase (AChE), sequence (P22303 32-614, species assumed): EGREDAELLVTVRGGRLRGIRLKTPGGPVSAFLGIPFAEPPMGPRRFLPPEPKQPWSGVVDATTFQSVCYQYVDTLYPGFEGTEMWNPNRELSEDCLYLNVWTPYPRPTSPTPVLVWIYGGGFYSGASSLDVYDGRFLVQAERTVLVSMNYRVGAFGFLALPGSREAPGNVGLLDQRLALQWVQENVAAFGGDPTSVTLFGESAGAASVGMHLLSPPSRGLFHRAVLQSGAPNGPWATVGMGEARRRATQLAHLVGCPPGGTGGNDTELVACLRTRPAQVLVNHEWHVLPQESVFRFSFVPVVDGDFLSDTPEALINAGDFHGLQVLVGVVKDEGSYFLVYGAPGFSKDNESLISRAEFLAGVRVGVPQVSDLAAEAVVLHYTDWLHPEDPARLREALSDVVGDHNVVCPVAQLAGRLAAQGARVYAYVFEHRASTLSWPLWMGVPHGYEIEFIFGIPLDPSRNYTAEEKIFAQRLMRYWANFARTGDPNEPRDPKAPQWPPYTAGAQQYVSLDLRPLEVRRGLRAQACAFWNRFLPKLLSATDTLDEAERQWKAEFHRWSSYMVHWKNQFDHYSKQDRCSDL

Compound | Inhibitory activity against LPS-induced NF-κB activation [2] | IC50 [3] | other results
C=CC(C)(C)c1[nH]c2ccccc2c1/C=c1\[nH]c(=O)c(=C)[nH]c1=O [Compound 14, neoechinulin B] | obvious inhibitory activities |  | Effect on RANKL-induced osteoclast differentiation [1]: suppressed RANKL-induced osteoclast differentiation; IC50 [2]: 8.7 µM
C/C=C/C=C/CCc1c(O)cc(CC=C(C)C)c(O)c1C=O [Compound 4, isodihydroauroglaucin] |  | 490 µM | 
Cc1cc(=O)c2c(O)c(C)c(O)cc2o1 [Compound 2, eugenitol] |  |  | MIC ([4]; Staphylococcus aureus, read-out: Antibacterial Activities MRSA (MIC)): 485 µM (≈ 100 µg/mL)
CCC/C=C/C=C/c1c(O)cc(CC=C(C)C)c(O)c1C=O [Compound 6, dihydroauroglaucin] |  | 18.6 µM | 
CCCCCCCc1c(O)cc(CC=C(C)C)c(O)c1C=O [Compound 3, flavoglaucin] |  | 23.9 µM | IC50 [5]: 22.2 µM
C=CC(C)(C)c1[nH]c2ccccc2c1/C=C1\NC(=O)C(=O)NC1=O [Compound 10, neoechinulin E] | obvious inhibitory activities |  | 
C=CC(C)(C)c1[nH]c2ccccc2c1/C=C1\NC(=O)C(C)(OC)NC1=O (stereo not drawn) [Compound 11, variecolorin H] | obvious inhibitory activities |  | Effect on RANKL-induced osteoclast differentiation [1]: suppressed RANKL-induced osteoclast differentiation; IC50 [2]: 19.2 µM
CCCCC/C=C/c1c(O)cc(CC=C(C)C)c(O)c1C=O [Compound 5, tetrahydroauroglaucin] |  | 39.9 µM | 
Gentamycin [reference compound] |  |  | Antibacterial Activities MRSA (MIC, μM) [4]: 1.4 µM
C/C=C/C(=O)Cc1cc(O)c(C)c(O)c1C=O [Compound 1, (E)-2,4-dihydroxy-3-methyl-6-(2-oxopent-3-en-1-yl) benzaldehyde] | obvious inhibitory activities |  | 
